Laboratory results reported in publication PMC3025356, “Mechanism of the Ca^2+-Dependent Interaction between S100A4 and Tail Fragments of Nonmuscle Myosin Heavy Chain IIA” (Journal of Molecular Biology, 2011).
Where two headings read alike, the source gives them in different places.

Experiments:
[1] = Stopped-flow Quin-2 fluorescence, Ca^2+ dissociation from / binding to S100A4 constructs (no target); details: single exponential fit, no target
Text: In order to increase the signal-to-noise ratio of the Ca^2+ dissociation transients, we used Quin-2 as combined fluorescent indicator and high-affinity chelator.[19,20] These measurements confirmed that Ca^2+ dissociated from wild-type protein with a rate constant of 16 s^− 1 (Fig. 3a; cf. 20 s^− 1 for the tyrosine signal). Given the poor signal-to-noise ratio of the tyrosine signal, the difference is barely significant but may reflect the fact that the Quin-2 signal represents at least a two-step sequential reaction (Ca^2+ dissociation from S100AS4, followed by rapid binding to Quin-2).
Fig. 3 (a) Dissociation of Ca^2+ from wild-type S100A4 (black), E33Q mutant (blue), and D63N mutant (red), as monitored by Quin-2 fluorescence. […] The records for the mutants were vertically offset for clarity. (b) Ca^2+ binding to S100A4 as determined from the amplitude of the resolved transient (k ≈ 20 s^− 1) when 6.5 μM S100A4 was preincubated with various added [Ca^2+] and then mixed with 100 μM Quin-2. The amplitude was converted into a bound concentration from an independent calibration using the same Quin-2 solution and known free [Ca^2+]. […] While either model could account for the data, the measured stoichiometry from ITC (Table 1) favors the cooperative model.
(§1) Stopped-flow measurements were carried out using an SX18-MV apparatus (Applied Photophysics Ltd., Leatherhead, UK) with a dead time of 1.5 ms.[40] Records were generally captured on a logarithmic time base. Absorption (turbidity) measurements were usually recorded using a 10-mm pathlength, while fluorescence was recorded with a 2-mm pathlength for excitation and emission. The stated concentrations of components refer to the reaction chamber after mixing, unless otherwise indicated. Tyrosine fluorescence was excited at 280 nm, and the emission was collected through a UG11 bandpass filter plus a 305-nm longpass filter.[18] Fluorescein fluorescence was excited at 480 nm, and the emission was detected through a 515-nm longpass filter. Quin-2 fluorescence was measured by excitation at 336 nm, and emission was collected with a 455-nm longpass filter. For simultaneous recording of light scatter, a second channel was monitored through a UG11 filter. Rate constants were obtained by fitting to single-exponential or double-exponential functions using Kaleidagraph (Synergy Software) or Applied Photophysics Pro-Data software. Modeling of kinetic schemes was performed using Berkeley Madonna software.

[2] = Isothermal titration calorimetry of Ca^2+ binding to S100A4 constructs
Method: Fig. 2 ITC records for Ca^2+ binding to S100A4 constructs: (a) 75 μM wild type at 30 °C; (b) 75 μM wild type at 10 °C; (c) 75 μM E33Q construct at 30 °C; (d) 300 μM D63N construct at 30 °C. For mutant constructs data at 10 °C, see Fig. S1. All preparations were dialysed against the same buffer of 20 mM NaCl, 10 mM Hepes, and 2 mM DTT (pH 7.5).
ITC data were collected using a VP-ITC microcalorimeter (MicroCal Ltd., Northampton, MA) and analysed by fitting to a single-site binding equation or a two-site binding equation using MicroCal Origin software.

[3] = Stopped-flow tyrosine fluorescence, Ca^2+ dissociation from S100A4 constructs; assay type: binding
Method: as §1
Dissociation of Ca2+ from wild type S100A4 (black), Y19F mutant (blue) and Y75F mutant (red) monitored by tyrosine fluorescence. 13 M of each S100A4 construct plus 100 µM Ca2+ was mixed with 200 µM EGTA (reaction chamber concentrations) and the tyrosine fluorescence monitored. The buffer was 20 mM NaCl, 10 mM HEPES, 2 mM DTT at pH 7.5 and 20 °C. Fits to a single exponential function yielded rate constants of 20 s-1, 113 s-1 and 45 s-1 for wild-type, Y19F mutant and Y75F mutant respectively. (d) Dissociation of Ca2+ from wild type S100A4 (black), E33Q mutant (blue) and D63N mutant (red) monitored by tyrosine fluorescence. 13 M of each S100A4 construct plus 15 M Ca2+ was mixed with 200 M EGTA (reaction chamber concentrations) and the tyrosine fluorescence monitored. Fits to a single exponential function yielded rate constants of 22 s-1 and 49 s-1 for wild-type and E33Q construct respectively, while that […]
The records for the mutants were vertically offset for clarity in both […]

[4] = target: T1, Δ10-S100A4 (Homo sapiens, UniProt P26447); experiment: NMR ^1H,^15N HSQC titration of Δ10-S100A4 with myosin peptides; assay type: binding
T1 construct: truncated Δ10-S100A4, which lacks 10 C-terminal residues; made in house; host or cells: Escherichia coli (M9 minimal medium, 15N labelling)

[5] = 10 °C and 30 °C, read-out: Kd for Ca^2+
[6] = 10 °C, 75 μM protein (D63N 300 μM), 20 mM NaCl, 10 mM Hepes, 2 mM DTT, pH 7.5
[7] = 30 °C, 75 μM protein (D63N 300 μM), 20 mM NaCl, 10 mM Hepes, 2 mM DTT, pH 7.5
[8] = first site, Ca^2+ binding, 30 °C, 75 μM protein (D63N 300 μM), 20 mM NaCl, 10 mM Hepes, 2 mM DTT, pH 7.5, read-out: K1d
[9] = first site, 10 °C, wild type and E33Q cooperative, read-out: K1d
[10] = 13 μM S100A4 + 100 μM Ca^2+ mixed with 200 μM EGTA, 20 mM NaCl, 10 mM Hepes, 2 mM DTT, pH 7.5, 20 °C

T1 sequence (P26447 1-91 limits assumed, stated change not applied): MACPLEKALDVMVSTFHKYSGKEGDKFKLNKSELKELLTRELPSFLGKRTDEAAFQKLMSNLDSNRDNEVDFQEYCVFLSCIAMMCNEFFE

Substance	Ca^2+ dissociation rate constant (Quin-2) [1]	Kd [2, 5]	n1 (Ca^2+ per monomer) [2, 6]	n1 (Ca^2+ per monomer) [2, 7]	Kd [2, 8]	Kd [2, 9]	Ca^2+ dissociation rate constant (tyrosine) [3, 10]	also measured
D63N: S100A4 mutant compromised in the EF2 Ca^2+ binding loop	500 s^− 1	65 to 70 µM	0.44 ± 0.01 Ca^2+ per monomer	0.54 ± 0.01 Ca^2+ per monomer	68 ± 1 µM	65 ± 3 µM		reduction in Ca^2+ affinity ([2]; compromised EF2 site, as suggested by ITC): 30 -fold
E33Q: S100A4 mutant compromised in the EF1 Ca^2+ binding loop	35 s^− 1	1 to 10 µM	0.96 ± 0.09 Ca^2+ per monomer	0.33 ± 0.03 Ca^2+ per monomer	10.9 ± 1.9 µM	~1 µM		Ca^2+ dissociation rate constant (tyrosine) ([3]; 13 μM S100A4 + 15 μM Ca^2+ mixed with 200 μM EGTA): 49 s^− 1
M15^C: myosin peptide G1924-G1938, acetylated N-terminus, amidated C-terminus (Ac-GDLPFVVPRRMARKG-NH2)								NMR exchange regime ([4]; 0.2 mM Δ10-S100A4, Ca^2+, 35 °C): fast exchange; affinity by NMR ([4]; 0.2 mM Δ10-S100A4, up to 9-fold molar excess of peptide): too low to be measured by NMR
Y19F: S100A4 mutant, tyrosine 19 to phenylalanine							113 s^− 1	
Y75F: S100A4 mutant, tyrosine 75 to phenylalanine							45 s^− 1	
Δ10-S100A4: truncated S100A4, lacks 10 C-terminal residues								interaction in the absence of Ca^2+ ([4]; absence of Ca^2+): No interaction was observed
